Data as given in PMC4277619, “Design, Synthesis and Cytotoxicity Evaluationof New 1,2-diaryl-4, 5, 6, 7-Tetrahydro-1H-benzo[d] Imidazolesas Tubulin Inhibitors” (Iranian Journal of Pharmaceutical Research : IJPR, 2015).

Tests used:
[1] = system: Fibroblast; assay: MTT assay, cytotoxicity against normal fibroblast cells; assay type: cell-based; settings: Homo sapiens, 24 h incubation
Procedure: (§1) Fibroblast, MCF7 (human breast cancer), HEPG2 (human liver carcinoma), A549 (human lung cancer) and T47D (human breast cancer) cell lines were purchased from Pasteur Institute, Tehran, Iran. The cells were grown in RPMI1640 medium at 37 °C under 5% CO2 supplemented with 10% heat inactivated fetal bovine serum (FBS), 100 U/mL penicillin and 100 µg/mL streptomycin. Cell viability was evaluated using MTT method which is based on the reduction of 3-(4,5-dimethylthiazol-2-yl)-2,5-diphenyltetrazolium bromide (MTT) dye to purple formazan crystals by mitochondrial succinate dehydrogenase enzyme in living cells. The cells were seeded into 96-well plates at a concentration of 6000 cells/well and allowed to incubate for 24 h. The medium was then discarded and different concentrations of the test compounds dissolved in complete medium, were added to each well. After further incubation for 24 h at 37 °C, the medium was aspirated and 100 µL MTT (2 mg/mL) was added to the wells and incubated for 3 h at 37 °C. The produced formazan crystals were dissolved in 100 µL of DMSO. Plates were incubated for 20 min at 37 °C and the optical densities were read at 570 nm with a reference wavelength of 630 nm as background using a spectrophotometer plate reader (Infinite® M200, TECAN). Colchicine was used as positive control and DMSO as the solvent of the test compounds and its final concentration was less than 0.2%. IC50 was calculated by calibration curve using Prism software. All the tests were performed in triplicates.

[2] = system: MCF-7; assay: MTT assay, cytotoxicity against MCF-7 breast cancer cells; assay type: cell-based, human; settings: for IC50: Homo sapiens, MCF7, MCF-7 cells, 24 h incubation, MTT; for SI MCF-7: selectivity index = IC50 Fibroblast / IC50 MCF-7
Procedure: as §1

[3] = system: A549; assay: MTT assay, cytotoxicity against A549 lung cancer cells; assay type: cell-based, human; settings: for IC50: Homo sapiens, A549 cells, 24 h incubation, MTT; for SI A549: selectivity index = IC50 Fibroblast / IC50 A549
Procedure: as §1

[4] = system: HEPG2; assay: MTT assay, cytotoxicity against HEPG2 liver carcinoma cells; assay type: cell-based, human; settings: for IC50: Homo sapiens, HEPG2 cells, 24 h incubation, MTT; for SI HEPG2: selectivity index = IC50 Fibroblast / IC50 HEPG2
Procedure: as §1

[5] = system: T47D; assay: MTT assay, cytotoxicity against T47D breast cancer cells; assay type: cell-based, human; settings: for IC50: Homo sapiens, T47D cells, 24 h incubation, MTT; for SI T47D: selectivity index = IC50 Fibroblast / IC50 T47D
Procedure: as §1

SMILES	melting point	IC50 [1]	IC50 [2]	SI MCF-7 [2]	IC50 [3]	IC50 [4]	SI HEPG2 [4]	IC50 [5]	SI T47D [5]	SI A549 [3]
COc1cc(-c2nc3c(n2-c2cccc(Cl)c2)CCCC3)cc(OC)c1OC [Compound 7f, 1-(3-Chlorophenyl)-2-(3,4,5-trimethoxyphenyl)-4,5,6,7-tetrahydro-1H-benzoimidazole]	–	87.3 µM	77.9 µM	1.12	> 100 µM	43.8 µM	2	58.6 µM	1.5	–
COc1cccc(-n2c(-c3cc(OC)c(OC)c(OC)c3)nc3c2CCCC3)c1 [Compound 7b, 1-(3-Methoxyphenyl)-2-(3,4,5-trimethoxyphenyl)-4,5,6,7-tetrahydro-1H-benzoimidazole]	–	> 100 µM	> 100 µM	–	30.4 µM	> 100 µM	–	> 100 µM	–	–
COc1ccc(-n2c(-c3cc(OC)c(OC)c(OC)c3)nc3c2CCCC3)cc1 [Compound 7a, 1-(4-Methoxyphenyl)-2-(3,4,5-trimethoxyphenyl)-4,5,6,7-tetrahydro-1H-benzoimidazole]	110 to 111 °C	28.5 µM	54.8 µM	0.52	83.6 µM	22.5 µM	1.26	41.1 µM	0.69	0.34

Second part, led by results:

melting point	SMILES	IC50 [1]	IC50 [2]	SI MCF-7 [2]	IC50 [3]	IC50 [4]	SI HEPG2 [4]	IC50 [5]	SI T47D [5]	SI A549 [3]
259 to 260 °C	COc1cc(-c2nc3c(n2-c2ccc(O)cc2)CCCC3)cc(OC)c1OC [Compound 7c, 4-[2-(3,4,5-Trimethoxyphenyl)-4,5,6,7-tetrahydro-1H-benzoimidazole-1-yl]-phenol]	80.8 µM	> 100 µM	–	> 100 µM	19.6 µM	4.11	41.2 µM	2	–
152 to 154 °C	COc1cc(-c2nc3c(n2-c2ccc(F)cc2)CCCC3)cc(OC)c1OC [Compound 7d, 1-(4-Fluorophenyl)-2-(3,4,5-trimethoxyphenyl)-4,5,6,7-tetrahydro-1H-benzoimidazole]	59.5 µM	62.3 µM	0.95	86.5 µM	19.4 µM	3.06	30 µM	2	0.68
157 to 158 °C	COc1cc(-c2nc3c(n2-c2ccc(Cl)cc2)CCCC3)cc(OC)c1OC [Compound 7e, 1-(4-Chlorophenyl)-2-(3,4,5-trimethoxyphenyl)-4,5,6,7-tetrahydro-1H-benzoimidazole]	54 µM	36.4 µM	1.48	87 µM	15.6 µM	3.46	34.5 µM	1.6	0.62
